Measurements reported in US5538985A, “Pyrrolidinone derivatives” (Mitsui Toatsu Chemicals, Inc., priority 1994, dated 1996).

Test system: mAMP-induced hyperkinesia
Test: inhibition of methamphetamine (mAMP)-induced hyperkinesia in mice (Pharmacological Test 2)
Type: in vivo, mice (ddy male)
Details: Mus musculus, sc, 0.5 h; test drug 10 mg/kg peritoneally; methamphetamine 1.5 mg/kg subcutaneously; motion measured for 30 minutes; read-out: Inhibition rate of mAMP-induced hyperkinesia (%)
Method: Using mice, antipsychotic activities were investigated in terms of hyperkinesia induced by methamphetamine. For the experiment, ten 5 weeks-old ddy male mice (NIHON S.L.C K.K.) were used per each group. Immediately after each mouse was peritoneally administered at 10 mg/kg with the corresponding test drug, the mouse was placed in a photocell cage for measurement. The amount of motion was measured for 30 minutes (the first measurement: this was recorded as the action of the test drug for the active movement). Thereafter, the mouse was once taken out of the cage and subcutaneously administered at 1.5 mg/kg with methamphetamine. The mouse was then returned to the same cage and the amount of motion was measured for 30 minutes. An average amount of motion of each group was determined based on the amounts of motion after the administration of methamphetamine (mAMP) as obtained by the second measurement, and the inhibition rate (%) of hyperkinesia was calculated in accordance with the following formula: [formula]
The group to which the test drug was administered: the test drug+methamphetamine
Control group: vehicle+methamphetamine
Normal group: vehicle+saline

SMILES	inhibition in vivo at 10 mg/kg [%]
O=C1C(CN2CCCCCC2)CCN1c1ccc(Cl)cc1 (stereo not shown) [Example 1]	55
O=C1C(CN2CCCCC2)CCN1c1ccc(Cl)cc1 (stereo not shown) [Example 23]	54
CC1CCN(CC2CCN(c3ccc(Cl)cc3)C2=O)CC1 (stereo not shown) [Example 26]	56
CC1CCN(CC2CCN(c3ccc(Cl)c(Cl)c3)C2=O)CC1 (stereo not shown) [Example 33]	53
O=C1C(CN2CCCC2)CCN1c1ccc(Cl)cc1 (stereo not shown) [Example 36]	56
O=C1CC(CN2CCCCC2)CN1c1ccc(F)cc1 (stereo not shown) [Example 37]	62
CCc1ccc(N2CC(CN3CCCCC3)CC2=O)cc1 (stereo not shown) [Example 39]	54
O=C1C(CN2CCC(O)CC2)CCN1c1ccc(Cl)cc1 (stereo not shown) [Example 40]	73
COc1ccc(N2CCC(CN3CCC(C)CC3)C2=O)cc1 (stereo not shown) [Example 41]	53
CC(=O)C1CCN(CC2CCN(c3ccc(Cl)cc3)C2=O)CC1 (stereo not shown) [Example 45]	51
O=C1C(CN2CCCCCC2)CCN1c1ccc(F)cc1 (stereo not shown) [Example 53]	62
CC1CC(C)CN(CC2CCN(c3ccc(Cl)cc3)C2=O)C1 (stereo not shown) [Example 56]	76
O=C1C(CN2CCCCCC2)CCN1c1ccc(C2CCCCC2)cc1 (stereo not shown) [Example 64]	57
O=C1C(CN2CCCCCC2)CCN1c1ccc(-c2ccccc2)cc1 (stereo not shown) [Example 70]	66
COC1CCN(CC2CCN(c3ccc(Cl)cc3)C2=O)CC1 (stereo not shown) [Example 75]	66
CC1CCN(CC2CC(=O)N(c3ccc(Cl)cc3)C2)CC1 (stereo not shown) [Example 81]	53

Molecular target: T1, α1 receptor (Rattus norvegicus, UniProt Q9R0C9)
T1 construct: whole brain of a rat except for the cerebellum and medulla; from tissue; host or cells: rat whole brain except cerebellum and medulla, homogenate
T1 sequence (Q9R0C9 whole entry): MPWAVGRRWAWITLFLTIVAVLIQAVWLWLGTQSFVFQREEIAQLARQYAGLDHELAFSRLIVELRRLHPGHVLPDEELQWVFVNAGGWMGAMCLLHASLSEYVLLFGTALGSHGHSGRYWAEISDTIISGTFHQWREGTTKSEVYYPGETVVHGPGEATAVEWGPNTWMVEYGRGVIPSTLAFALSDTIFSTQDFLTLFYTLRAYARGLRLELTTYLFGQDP
Test: radioreceptor assay (α1 [sic] receptor) with 3H-(+)pentazocine in rat whole brain homogenate (Pharmacological Test 1)
Type: binding
Details: 3H-(+)pentazocine 5 nM, rat whole brain except cerebellum and medulla, 2 hours
Method: By modifying the Vilner et al. method [B. J. Vilner and W. D. Bowen: Mechanisms for Neuromodulation and neuroprotection? in Multiple Sigma and PCP Receptor Ligands, pp341 (1992) NPP Books], a radioreceptor assay was conducted with respect to the α1 receptor. A homogenate (10 mg/ml) of the whole brain of a rat except for the cerebellum and medulla was incubated together with each test drug and ^3 H-ligand [5 nM of ^3 H-(+)pentazocine (NEN)] for 2 hours. Brain tissue was filtered under suction through a glass fiber filter paper ("GF/B", trade name; manufactured by Whatman) using a cell harvester ("LL-12", trade name; manufactured by Brandel) and was washed twice, each with 3 ml of a buffer solution. The glass fiber filter paper was placed in a vial, to which 3.5 ml of a scintillator ("ACSII" trade name; product of Amersham International plc) were added. After being left for 10 hours, the amount of ^3 H-ligand bound to the receptor was measured by a liquid scintillation counter. Incidentally, (+)-pentazocine (10 μM) was used for the measurement of a blank.
Binding rates of ^3 H-ligand to the receptor at individual concentrations of each test drug were plotted to draw a graph by assuming that the binding rate without addition of the test drug was 100% and that when the blank substance was added was 0%. A concentration of the test drug, which would give a binding rate of 50%, was then determined and recorded as an IC50 value. From the IC50 value, the Ki value was determined in accordance with the following formula: [formula] KD represents the dissociation constant between ^3 H-ligand and the receptor, and was obtained by the Scatchard plotting of the bonding to the receptor when the concentration of ^3 H-ligand was varied.

SMILES	Ki [nM]
O=C1C(CN2CCCCCC2)CCN1c1ccc(Cl)cc1 (stereo not shown) [Example 1]	2.7
O=C1C(CN2CCCCC2)CCN1c1ccc(Cl)c(Cl)c1 (stereo not shown) [Example 2]	2.8
O=C1C(CN2CCCCCC2)CCN1c1cccc(C(F)(F)F)c1 (stereo not shown) [Example 3]	3.2
CC1CCN(CC2CCN(c3cccc(C(F)(F)F)c3)C2=O)CC1 (stereo not shown) [Example 11]	2.1
O=C1C(CN2CCCCC2)CCN1c1cccc(Cl)c1 (stereo not shown) [Example 12]	4.7
O=C1C(CN2CCCCC2)CCN1c1cccc(Br)c1 (stereo not shown) [Example 13]	1.3
O=C1C(CN2CCCCC2)CCN1c1cccc(C(F)(F)F)c1 (stereo not shown) [Example 20]	3.5

The next lines start with the values.

Ki [nM]	SMILES
1.5	O=C1C(CN2CCCCCC2)CCN1c1ccc(Cl)cc1 (single isomer, unassigned; (-)) [Example 93 (-) form, (-) 1-(4-Chlorophenyl)-3-(hexahydro-1H-azepin-1-ylmethyl)-2-pyrrolidinone]
2.3	CC1CCN(CC2CCN(c3ccc(C(C)(C)C)cc3)C2=O)CC1 (stereo not shown) [Example 27]
3.8	CCC1CCN(CC2CCN(c3ccc(Cl)cc3)C2=O)CC1 (stereo not shown) [Example 29]
1.2	O=C1C(CN2CCCCCCC2)CCN1c1ccc(Cl)c(Cl)c1 (stereo not shown) [Example 31]
7	CC1CCN(CC2CCN(c3ccc(Cl)c(Cl)c3)C2=O)CC1 (stereo not shown) [Example 33]
3.6	COc1cccc(N2CCC(CN3CCC(C)CC3)C2=O)c1 (stereo not shown) [Example 43]
5.9	COc1cccc(N2CCC(CN3CCCCCC3)C2=O)c1 (stereo not shown) [Example 44]
3	CC1CCN(CC2(C)CCN(c3ccc(Cl)cc3)C2=O)CC1 (stereo not shown) [Example 49]
4.4	O=C1C(CN2CCCCC2)CCN1c1ccc(C(F)(F)F)cc1 (stereo not shown) [Example 74]
8	COC1CCN(CC2CCN(c3ccc(Cl)cc3)C2=O)CC1 (stereo not shown) [Example 75]
2	O=C1C(CN2CCCCCC2)CCN1c1ccc(Cl)cc1 (stereo not shown) [Example 82]
